Values quoted from earlier work, collected in paper PMC11255275, “Structural insights into the triple agonism at GLP-1R, GIPR and GCGR manifested by retatrutide” (Cell Discovery, 2024).

Experiments:
GCGR = details: less potent than the endogenous hormone; cited from earlier work
Excerpt: (§1) The most successful treatments currently available include glucagon-like peptide-1 (GLP-1) receptor agonists (GLP-1RAs), exemplified by semaglutide (approved in 2017, $19.9 billion sales in 2023)[3] and tirzepatide (approved in 2022, $5.3 billion sales in 2023)[4].

GLP-1R = details: GLP-1R, less potent than the endogenous hormone, factor; cited from earlier work
Excerpt: as §1

GIPR = details: GIPR, more potent than the endogenous hormone by this factor; cited from earlier work
Excerpt: as §1

**Q.** Which results are given for CC[C@H](C)[C@H](NC(=O)[C@H](Cc1ccccc1)NC(=O)[C@H](C)NC(=O)C(C)(C)NC(=O)[C@H](CCC(N)=O)NC(=O)[C@H](C)NC(=O)[C@H](CCCCNC(=O)COCCOCCNC(=O)CC[C@H](NC(=O)CCCCCCCCCCCCCCCCCCC(=O)O)C(=O)O)NC(=O)[C@H](CCCCN)NC(=O)[C@H](CC(=O)O)NC(=O)[C@H](CC(C)C)NC(=O)[C@](C)(CC(C)C)NC(=O)[C@@H](NC(=O)[C@H](CO)NC(=O)[C@H](Cc1ccc(O)cc1)NC(=O)[C@H](CC(=O)O)NC(=O)[C@H](CO)NC(=O)[C@@H](NC(=O)[C@H](Cc1ccccc1)NC(=O)[C@@H](NC(=O)CNC(=O)[C@H](CCC(N)=O)NC(=O)C(C)(C)NC(=O)[C@@H](N)Cc1ccc(O)cc1)[C@@H](C)O)[C@@H](C)O)[C@@H](C)CC)C(=O)N[C@@H](CCC(=O)O)C(=O)N[C@@H](Cc1ccc(O)cc1)C(=O)N[C@@H](CC(C)C)C(=O)N[C@@H](CC(C)C)C(=O)N[C@@H](CCC(=O)O)C(=O)NCC(=O)NCC(=O)N1CCC[C@H]1C(=O)N[C@@H](CO)C(=O)N[C@@H](CO)C(=O)NCC(=O)N[C@@H](C)C(=O)N1CCC[C@H]1C(=O)N1CCC[C@H]1C(=O)N1CCC[C@H]1C(=O)N[C@@H](CO)C(N)=O [retatrutide]?
**A.** potency factor compared to endogenous hormone (GCGR): 0.3; potency factor compared to endogenous hormone (GLP-1R): 0.4; potency factor compared to endogenous hormone (GIPR): 8.9
